The results in this text go back to paper PMC11928584, “H105A peptide eye drops promote photoreceptor survival in murine and human models of retinal degeneration” (Communications Medicine, 2025).

The subject of data set [1] is photoreceptors of RhoP23H/+ mice. The experiment in a line: ONL thickness (DAPI sections, spider plot), RhoP23H/+ mice. It counts as in vivo, mouse. The following applies: daily eye drops 1 mg/ml P14-P19, P19, ventral retina.
Experimental: After embedding in paraffin, 14 μm sections were collected. […] Cone photoreceptors were labeled with anti-Opsin Blue (Merck, cat. AB5407) and anti-Opsin Red/Green (Merck, cat. AB5405). […] For nuclear staining, 0.1 μg/ml DAPI was used. Slides were mounted with Mowiol 4–88 (Merck) and images acquired with a Zeiss Axio Imager A2 fluorescence microscope. To count TUNEL positive cells the RETINA Analysis Tool kit for ImageJ was used[37].
To generate spider plots, the ONL thickness was measured from images passing through the optic nerve (ON) acquired with light microscopy of the retina sections stained with H&E or images of retina sections stained with DAPI with a dorsal-ventral orientation. The ONL thickness in the entire retina sections was measured at 5 different positions from both sides of the ON using ImageJ[28]. Alternatively, for DAPI stained images, a customed macro implemented in ImageJ was used to select only the ONL.
Fig. 6 Effects of eye drops containing H105A peptide in the photoreceptors of Rho^P23H/+ mice. a Scheme of experimental design. Daily peptide eye drops (5 µl of 1 mg/ml peptide) were applied to mice starting at P14 until P19 when immunofluorescence of retinal cross sections was performed. […] Histograms show quantification of immunofluorescence intensity for BAX and BCL2 markers. Five retinas per group were analyzed, with two sections per retina. […]
A short description of data set [2]: Localization of H105A in retina by anti-H105A immunofluorescence. It counts as in vivo. The following applies: RhoP23H/+ mice, daily eye drops P14-P19, anti-H105A immunofluorescence. How it is done:
To detect the transduced H105A peptide, we used a custom-made monoclonal recombinant Fab antibody raised against H105A (Bio-Rad AbD Serotec GmbH, Puchheim, Germany). The custom-made antibodies were produced by HuCAL® technology with a FLAG-tag for detection. […] Cells were maintained in DMEM 4.5 g/l (Thermo Fisher Scientific, cat. 11960), supplemented with 10% fetal bovine serum (FBS), 100 U/ml penicillin and 100 µg/ml streptomycin (Thermo Fisher Scientific, cat. 15140148) in 5% CO2 and at 37 °C. […] The specificity of the custom antibody to the H105A peptide was assessed by pre-incubation with 400 µM H105A peptide at 25 °C for 1 h before using it for immunodetection. […]
Daily eye-drop-delivered H105A between P14 and P19 penetrated the retina, reached the photoreceptors, and w a s detected throughout the retina, mostly in the IS/OS ( c). […]
(g-i) Negative controls for immunostaining. No staining was detected in untreated Rho P23H/+ retinas at P 19 (g), in sections where the antibody was pre-incubated with 400 µM H105A peptide for one hour (Panel h), or in sections without the primary antibody (i). […]

For data set [3], the system named is rod photoreceptor outer segments of RhoP23H/+ mice. The experiment in a line: OS thickness labelled by rhodopsin, RhoP23H/+ mice. It counts as in vivo, mouse. The following applies: Fig 6e. How it is done:
Eyes from Rho^P23H/+ mice eyes were enucleated and fixed in Davidson’s fix (8% formaldehyde (Merck, cat. F8775), 32% ethanol (Carlo Erba, cat. 414608), 10% acetic acid (Merck, cat. 695092)) over-night. After embedding in paraffin, 14 μm sections were collected. For TUNEL, sections were treated with […] Citrate Buffer pH 6 (10 mM Tri-sodium citrate (Carlo Erba, cat. 368007)), 0.2 mM citric acid (Merck, cat: 251275) in microwave for 5 min, then labeling was performed for one h at 37 °C using the In Situ Cell Death Detection Kit (Merck, cat. 12156792910). Rod photoreceptors were labeled with anti-RHO 1D4 antibody followed by Alexa Fluor 568 anti-mouse secondary antibody. Cone photoreceptors were labeled with anti-Opsin Blue (Merck, cat. AB5407) and anti-Opsin Red/Green (Merck, cat. AB5405). GFP localization in control transduced retinas was identified with specific anti-GFP antibody and Alexa Fluor 488 anti-mouse secondary antibody. Microglial cell labeling was performed using anti-Iba1 antibody (Wako, cat. 019-19741). For nuclear staining, 0.1 μg/ml DAPI was used. Slides were mounted with Mowiol 4–88 (Merck) and images acquired with a Zeiss Axio Imager A2 fluorescence microscope. To count TUNEL positive cells the RETINA Analysis Tool kit for ImageJ was used[37].
Fig. 6 Effects of eye drops containing H105A peptide in the photoreceptors of Rho^P23H/+ mice. a Scheme of experimental design. Daily peptide eye drops (5 µl of 1 mg/ml peptide) were applied to mice starting at P14 until P19 when immunofluorescence of retinal cross sections was performed. The contralateral control eyes were treated with vehicle HBSS. RE and LE refer to the right and left eyes, respectively. b Immunostaining was performed with antibodies against BAX or BCL2 (green), and DAPI (blue). Histograms show quantification of immunofluorescence intensity for BAX and BCL2 markers. […] Each individual data point represents the average of five (n = 5) retinas ± SD, with statistical significance determined between H105A and vehicle by paired t-test (****p < 0.0001). […] Statistical significance between H105A and untreated is indicated by ∗p ≤ 0.05, and ∗∗p ≤ 0.01. […] Presented as average ± SD, with statistics performed using One-way ANOVA Šídák’s multiple comparisons test. ∗p ≤ 0.05

Where a SMILES comes first, the peptide text is derived from it.

Consider `CC[C@H](C)[C@H](NC(=O)[C@H](CC(C)C)NC(=O)[C@H](CC(=O)O)NC(=O)[C@H](Cc1ccc(O)cc1)NC(=O)[C@H](Cc1ccc(O)cc1)NC(=O)[C@H](CC(C)C)NC(=O)[C@H](C)NC(=O)[C@H](CCCNC(=N)N)NC(=O)[C@H](C)NC(=O)[C@@H](NC(=O)[C@@H](NC(=O)[C@H](CO)NC(=O)[C@H](CCC(=O)O)NC(=O)[C@@H](NC(=O)[C@H](CCCNC(=N)N)NC(=O)[C@@H](N)CCC(N)=O)[C@@H](C)O)[C@@H](C)CC)[C@@H](C)CC)C(=O)N[C@@H](CO)C(=O)O` [H105A] (H-QRTESIIARALYYDLIS-OH), for which the “ONL thickness” value in data set [1] is listed as “preservation of ONL thickness”. In addition, the “localization of H105A in retina” value in data set [2] is “reaching the photoreceptors”. Further, the Outer segments (OS) thickness is 14.6 µm in data set [3] (replicate 1 of 9); 11.1 µm in data set [3] (replicate 2 of 9); 16.1 µm in data set [3] (replicate 3 of 9); 15.5 µm in data set [3] (replicate 4 of 9); 14.5 µm in data set [3] (replicate 5 of 9); 14.6 µm in data set [3] (replicate 6 of 9). Besides, the Outer segments (OS) thickness in data set [3] (replicate 7 of 9) was 12.4 µm; in data set [3] (replicate 8 of 9), 20.7 µm; in data set [3] (replicate 9 of 9), 16.5 µm.
